# From patent US20100036088A1, “Selective poly-N-substituted glycine antibiotics” (priority 2008, published 2010)
# “And” between values parts separate entries of the source, which are not always exact repeats. Equal entries are not always repeated. Where two headings read alike, the source gives them in different places. Numbered stars: 1 amine (or outer) side, 2 acyl side, 3 side chain; on linkers, the order of the positions; unused ones are H or OH. Square brackets hold non-standard residues; d marks the D form. Peptide text beside a SMILES is read from it. X1 = CC(C)[C@H](C)N(CC(=O)[*:2])[*:1]; Nspe = C[C@H](NCC(=O)O)c1ccccc1; Nphe = O=C(O)CNCc1ccccc1; Nlys = NCCCCNCC(=O)O
# What was measured:
# Assay type in all cases: cell-based
# human erythrocytes = experiment: Hemolysis assay
# Summary of the method: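 Peptoid serial dilutions in PBS pH 7.4 were combined with an equal volume of 20 vol % washed human red cells (heparinised blood) for 1 h at 37 °C. After dilution and pelleting at 1200 g, released haemoglobin in supernatant was read at A350, scaled between PBS and 0.2 vol % Triton X-100 controls.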
# B. subtilis (ATCC 6633) = system: B. subtilis (ATCC 6633)
# Summary of the method: (§1)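 MICs by broth microdilution per CLSI M7-A6 in cation-adjusted Mueller-Hinton broth, using 2:1 serial dilutions of peptoid and a bacterial inoculum of 1×10^6 CFU/mL. Values reproducible over three experiments, each with two parallel trials.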
# E. coli (ATCC 35218) = system: E. coli (ATCC 35218)
# Summary of the method: as §1
# Enterococcus faecalis 99 = conditions: for MIC E. faecalis 99: Table 7A
# Procedure: (§2) Antibacterial assays. MICs were determined according to CLSI M7-A6 protocols in a 96-well microtiter plate. In test wells, 50 μL bacterial inoculum (5×10^5 CFU/ml) in Mueller-Hinton broth (MHB) was added to 50 μL peptoid solution in MHB (prepared by 1:2 serial dilutions). Positive controls contained 50 μL inoculum and 50 μL MHB without peptoid. […] MIC values reported were reproducible between three independent experimental replicates, each consisting of two parallel trials. Broad-spectrum antimicrobial susceptibility testing was performed against BSL2 pathogens by Nova Biologicals, Inc. (Conroe, Tex.).
# (§3) Broad-spectrum antibacterial assays. MICs of compounds were determined by microdilution procedure in Mueller-Hinton broth (MHB) in accordance with CLSI M7-A6 protocols in a manner similar to that described for the screen antibacterial assays. Inoculated microtiter plates were incubated at 35° C. for 24 hours prior to the result being recorded. Four ATCC strains that were used as standards are recommended by CLSI: Pseudomonas aeruginosa ATCC 27853, Escherichia coli ATCC 25922, Staphylococcus aureus ATCC 29213 and Enterococcus faecalis ATCC 29212. Other strains from the ATCC collection include Proteus vulgaris ATCC 49132, Proteus mirabilis ATCC 35659, Klebsiella pneumoniae ATCC 33495, Enterobacter aerogenes ATCC 35029 and Serratia marcescens ATCC 13880. S. aureus NRS100 (COL) is a well characterized methicillian-resistant S. aureus (MRSA) strain. The strains S. aureus VAN1 and S. aureus VAN2, vancomycin-resistant MRSA strains that were isolated in Michigan and Pennsylvania, were the first vancomycin-resistant strains clinically isolated. S. aureus NRS119 and S. aureus NRS120 are linezolid-resistant isolates from the Network on Antimicrobial Resistance in S. aureus (NARSA) collection. E. faecalis 99 and E. faecium 106 are vancomycin-resistant enterococcal strains.
# [1] = system: Enterococcus faecalis ATCC 29212; conditions: for MIC E. faecalis ATCC 29212: Table 7A
# Procedure: as §2, §3
# Enterococcus faecium 106 = conditions: for MIC E. faecium 106: Table 7A
# Procedure: as §2, §3
# [2] = system: Escherichia coli ATCC 25922; conditions: for MIC E. coli ATCC 25922: Table 7A
# Procedure: as §2, §3
# [3] = system: Klebsiella pneumoniae ATCC 33495; conditions: for MIC K. pneumoniae ATCC 33495: Table 7A
# Procedure: as §2, §3
# [4] = system: Proteus mirabilis ATCC 35659
# Procedure: as §2, §3
# [5] = system: Proteus vulgaris ATCC 49132; conditions: for MIC P. vulgaris ATCC 49132: Table 7A
# Procedure: as §2, §3
# [6] = system: Pseudomonas aeruginosa ATCC 27853; conditions: for MIC P. aeruginosa ATCC 27853: Table 7A
# Procedure: as §2, §3
# [7] = system: Staphylococcus aureus NRS120; conditions: for MIC S. aureus NRS120: Table 7A, linezolid-resistant
# Procedure: as §2, §3
# [8] = system: Staphylococcus aureus VAN2; conditions: for MIC S. aureus VAN2: Table 7A, MRSA, vancomycin-resistant
# Procedure: as §2, §3
compound,measurement,setting,value
"C[C@@H](c1ccccc1)N(CC(N)=O)C(=O)CN(C(=O)CN(CCCCN)C(=O)CN(C(=O)CN(C(=O)CN(CCCCN)C(=O)CN(C(=O)CN(C(=O)CN(CCCCN)C(=O)CN(C(=O)CN(C(=O)CNCCCCN)[C@@H](C)c1ccccc1)[C@@H](C)c1ccccc1)[C@@H](C)c1ccccc1)[C@@H](C)c1ccccc1)[C@@H](C)c1ccccc1)[C@@H](C)c1ccccc1)[C@@H](C)c1ccccc1 [compound 1, H-(NLys-Nspe-Nspe)4-NH2] (H-[Nlys][Nspe][Nspe][Nlys][Nspe][Nspe][Nlys][Nspe][Nspe][Nlys][Nspe][Nspe]-NH2)",HD10 (10% hemolytic dose),"human erythrocytes; Table 1, human erythrocytes",21 µM
same,HD50 (50% hemolytic dose),"human erythrocytes; Table 1, human erythrocytes",100 µM
same,HD10,human erythrocytes; Table 2,18 µM
same,HD50,human erythrocytes; Table 2,72 µM
same,HD10,human erythrocytes; Table 3,21 µM
same,HD50,human erythrocytes; Table 3,100 µM
same,HD10,human erythrocytes; Table 6,21 µM
same,HD50,human erythrocytes; Table 6,100 µM
same,B. subtilis MIC,"B. subtilis (ATCC 6633); Table 3, ATCC 6633, cation-adjusted MHB",1.6 µM
same,B. subtilis MIC,"B. subtilis (ATCC 6633); Table 6, ATCC 6633",1.6 µM
same,E. coli MIC,"E. coli (ATCC 35218); Table 3, ATCC 35218, cation-adjusted MHB",6.3 µM
same,E. coli MIC,"E. coli (ATCC 35218); Table 6, ATCC 35218",6.25 µM and 6.3 µM
same,MIC Enterococcus faecalis 99,"Enterococcus faecalis 99; Table 4, vancomycin resistant",4.4 µM
same,MIC Enterococcus faecalis ATCC 29212,"[1]; Table 4, Gram +",2.2 µM
same,MIC Enterococcus faecium 106,"Enterococcus faecium 106; Table 4, vancomycin resistant",2.2 µM
same,MIC Escherichia coli ATCC 25922,"[2]; Table 4, Gram −",2.2 µM
same,MIC Klebsiella pneumoniae ATCC 33495,"[3]; Table 4, Gram −",8.8 µM
same,MIC Proteus mirabilis ATCC 35659,"[4]; Table 4, Gram −",>70.4 µM
same,MIC P. mirabilis ATCC 35659,[4]; Table 7A,>128 mg/L
same,MIC Proteus vulgaris ATCC 49132,"[5]; Table 4, Gram −",17.6 µM
same,MIC Pseudomonas aeruginosa ATCC 27853,"[6]; Table 4, Gram −",4.4 µM
same,MIC Staphylococcus aureus NRS120,"[7]; Table 4, Gram +",4.4 µM
same,MIC Staphylococcus aureus VAN2,"[8]; Table 4, vancomycin resistant",2.2 µM
"C[C@@H](c1ccccc1)N(CC(N)=O)C(=O)CN(C(=O)CN(CCCCN)C(=O)CN(C(=O)CN(C(=O)CN(CCCCN)C(=O)[C@@H]1CCCN1C(=O)CN(C(=O)CN(CCCCN)C(=O)CN(C(=O)CN(C(=O)CNCCCCN)[C@@H](C)c1ccccc1)[C@@H](C)c1ccccc1)[C@@H](C)c1ccccc1)[C@@H](C)c1ccccc1)[C@@H](C)c1ccccc1)[C@@H](C)c1ccccc1 [1-Pro6, H-Nlys-Nspe-Nspe-Nlys-Nspe-L-Pro-(Nlys-Nspe-Nspe)2-NH2] (H-[Nlys][Nspe][Nspe][Nlys][Nspe]P[Nlys][Nspe][Nspe][Nlys][Nspe][Nspe]-NH2)",HD10,human erythrocytes,83 µM
same,HD50,human erythrocytes,> 200 µM
same,HD10 (10% hemolytic dose),"human erythrocytes; red cells of human, 1 h",63 µM
same,HD50 (50% hemolytic dose),"human erythrocytes; red cells of human, 1 h",> 110 µM
same,B. subtilis MIC,B. subtilis (ATCC 6633); ATCC 6633,1.6 µM
same,E. coli MIC,E. coli (ATCC 35218); ATCC 35218,12.5 µM
same,MIC Enterococcus faecalis 99,Enterococcus faecalis 99; 99,36.5 µM
same,MIC Enterococcus faecalis ATCC 29212,[1]; ATCC 29212,4.6 µM
same,MIC Enterococcus faecium 106,Enterococcus faecium 106; 106,2.3 µM
same,MIC Escherichia coli ATCC 25922,[2]; ATCC 25922,9.1 µM
same,MIC Klebsiella pneumoniae ATCC 33495,[3]; ATCC 33495,9.1 µM
same,MIC P. mirabilis ATCC 35659,[4]; ATCC 35659,>128 mg/L
same,MIC Proteus mirabilis ATCC 35659,[4]; ATCC 35659,>72.9 µM
same,MIC Proteus vulgaris ATCC 49132,[5]; ATCC 49132,18.2 µM
same,MIC Pseudomonas aeruginosa ATCC 27853,[6]; ATCC 27853,18.2 µM
same,MIC Staphylococcus aureus NRS120,[7]; NRS120,9.1 µM
same,MIC Staphylococcus aureus VAN2,[8]; VAN2,4.6 µM
"NCCCCNCC(=O)N(CC(=O)N(CC(=O)N(CCCCN)CC(=O)N(CC(=O)N(CC(=O)N(CCCCN)CC(=O)N(CC(=O)N(CC(=O)N(CCCCN)CC(=O)N(CC(=O)N(CC(N)=O)Cc1ccccc1)Cc1ccccc1)Cc1ccccc1)Cc1ccccc1)Cc1ccccc1)Cc1ccccc1)Cc1ccccc1)Cc1ccccc1 [1achiral, H-(Nlys-Npm-Npm)4-NH2] (H-[Nlys][Nphe][Nphe][Nlys][Nphe][Nphe][Nlys][Nphe][Nphe][Nlys][Nphe][Nphe]-NH2)",B. subtilis MIC,B. subtilis (ATCC 6633); ATCC 6633,0.78 µM
same,MIC Enterococcus faecalis 99,Enterococcus faecalis 99; 99,37.5 µM
same,MIC E. faecalis 99,Enterococcus faecalis 99,64 mg/L
same,MIC Enterococcus faecalis ATCC 29212,[1]; ATCC 29212,9.4 µM
same,MIC E. faecalis ATCC 29212,[1],16 mg/L
same,MIC Enterococcus faecium 106,Enterococcus faecium 106; 106,2.3 µM
same,MIC E. faecium 106,Enterococcus faecium 106,4 mg/L
same,MIC Escherichia coli ATCC 25922,[2]; ATCC 25922,9.4 µM
same,MIC E. coli ATCC 25922,[2],16 mg/L
same,MIC Klebsiella pneumoniae ATCC 33495,[3]; ATCC 33495,4.7 µM
same,MIC K. pneumoniae ATCC 33495,[3],8 mg/L
same,MIC P. mirabilis ATCC 35659,[4]; ATCC 35659,>128 mg/L
same,MIC Proteus mirabilis ATCC 35659,[4]; ATCC 35659,>75 µM
same,MIC Proteus vulgaris ATCC 49132,[5]; ATCC 49132,18.7 µM
same,MIC P. vulgaris ATCC 49132,[5],32 mg/L
same,MIC Pseudomonas aeruginosa ATCC 27853,[6]; ATCC 27853,9.4 µM
same,MIC P. aeruginosa ATCC 27853,[6],16 mg/L
same,MIC Staphylococcus aureus NRS120,[7]; NRS120,9.4 µM
same,MIC S. aureus NRS120,[7],16 mg/L
same,MIC S. aureus VAN2,[8],8 mg/L
same,MIC Staphylococcus aureus VAN2,[8]; VAN2,4.7 µM
"CC(C)[C@H](C)N(CC(=O)N(CC(=O)N(CCCCN)CC(=O)N(CC(=O)N(CC(=O)N(CCCCN)CC(=O)N(CC(=O)N(CC(=O)N(CCCCN)CC(=O)N(CC(=O)N(CC(N)=O)[C@@H](C)c1ccccc1)[C@@H](C)C(C)C)[C@@H](C)c1ccccc1)[C@@H](C)C(C)C)[C@@H](C)c1ccccc1)[C@@H](C)C(C)C)[C@@H](C)c1ccccc1)C(=O)CNCCCCN [1-Nsdp2,5,8,11, H-(Nlys-Nsdp-Nspe)4-NH2] (H-[Nlys][X1][Nspe][Nlys][X1][Nspe][Nlys][X1][Nspe][Nlys][X1][Nspe]-NH2)",HD10,human erythrocytes,111 µM
same,HD50,human erythrocytes,> 200 µM
same,B. subtilis MIC,B. subtilis (ATCC 6633); ATCC 6633,0.78 µM
same,E. coli MIC,"E. coli (ATCC 35218); Table 6, ATCC 35218",12.5 µM
same,MIC Enterococcus faecalis 99,Enterococcus faecalis 99; 99,38.0 µM
same,MIC E. faecalis 99,Enterococcus faecalis 99,64 mg/L
same,MIC Enterococcus faecalis ATCC 29212,[1]; ATCC 29212,4.8 µM
same,MIC E. faecalis ATCC 29212,[1],8 mg/L
same,MIC Enterococcus faecium 106,Enterococcus faecium 106; 106,2.4 µM
same,MIC E. faecium 106,Enterococcus faecium 106,4 mg/L
same,MIC Escherichia coli ATCC 25922,[2]; ATCC 25922,4.8 µM
same,MIC E. coli ATCC 25922,[2],8 mg/L
same,MIC Klebsiella pneumoniae ATCC 33495,[3]; ATCC 33495,4.8 µM
same,MIC K. pneumoniae ATCC 33495,[3],8 mg/L
same,MIC P. mirabilis ATCC 35659,[4]; ATCC 35659,>128 mg/L
same,MIC Proteus mirabilis ATCC 35659,[4]; ATCC 35659,>76.0 µM
same,MIC Proteus vulgaris ATCC 49132,[5]; ATCC 49132,19.0 µM
same,MIC P. vulgaris ATCC 49132,[5],32 mg/L
same,MIC Pseudomonas aeruginosa ATCC 27853,[6]; ATCC 27853,9.5 µM
same,MIC P. aeruginosa ATCC 27853,[6],16 mg/L
same,MIC Staphylococcus aureus NRS120,[7]; NRS120,9.5 µM
same,MIC S. aureus NRS120,[7],16 mg/L
same,MIC S. aureus VAN2,[8],8 mg/L
same,MIC Staphylococcus aureus VAN2,[8]; VAN2,4.8 µM
